Measured values as given in US9365604B2, “Oligomer-nucleoside phosphate conjugates” (NEKTAR THERAPEUTICS, priority 2007, dated 2016).
Read-outs that look alike come from different tables or passages of the source.

How the values were obtained:
CCRF-CEM = assay: In vitro cytotoxicity assay (CellTiter-Glo); type: cell-based; settings: Homo sapiens, 72 h exposure, CellTiter-Glo
Experimental: (§1) The objective of these studies was to determine the IC50 values for PEG-gemcitabine conjugates against gemcitabine-resistant cell lines based on data from previous Xenograft studies. The cells were exposed for 72 h, and cell viability assessed by using the CellTiter-Glo assay.

K-562 = assay: In vitro cytotoxicity assay (CellTiter-Glo); type: cell-based; settings: Homo sapiens, K562, 72 h exposure, CellTiter-Glo
Experimental: as §1

NCI-H460 = assay: In vitro cytotoxicity assay (CellTiter-Glo); type: cell-based; settings: Homo sapiens, 72 h exposure, CellTiter-Glo
Experimental: as §1

NCI-H522 = assay: In vitro cytotoxicity assay (CellTiter-Glo); type: cell-based; settings: Homo sapiens, 72 h exposure, CellTiter-Glo
Experimental: as §1

NCI-H23 = assay: In vitro cytotoxicity assay (CellTiter-Glo); type: cell-based; settings: Homo sapiens, 72 h exposure, CellTiter-Glo
Experimental: as §1

DLD-1 = assay: In vitro cytotoxicity assay (CellTiter-Glo); type: cell-based; settings: Homo sapiens, 72 h exposure, CellTiter-Glo
Experimental: as §1

AS283 = assay: In vitro cytotoxicity assay (CellTiter-Glo); type: cell-based; settings: 72 h exposure, CellTiter-Glo
Experimental: as §1

RL = assay: In vitro cytotoxicity assay (CellTiter-Glo); type: cell-based; settings: Homo sapiens, 72 h exposure, CellTiter-Glo
Experimental: as §1

HL-60 = assay: In vitro cytotoxicity assay (CellTiter-Glo); type: cell-based; settings: Homo sapiens, 72 h exposure, CellTiter-Glo
Experimental: as §1

SW-620 = assay: In vitro cytotoxicity assay (CellTiter-Glo); type: cell-based; settings: Homo sapiens, 72 h exposure, CellTiter-Glo
Experimental: as §1

in vitro = settings: human
Experimental: Cells were inoculated into 24-well microtiter plates in 100 μL at 5×10^3 cells/well, in duplicate. After 24 h, test articles were added to the cells for 24 or 48 h, after which time the supernatant from each of the wells was collected and stored below −15° C. until LC/MS analysis.

PANC-1 [1] = assay: In vitro cytotoxicity assay (CellTiter-Glo); type: cell-based; settings: Homo sapiens, 72 h exposure
Experimental: as §1
The PEG-gemcitabine derivatives and gemcitabine inhibited the growth of most of the cell lines with IC50 values from the nM to low μM range, except for PANC-1 cells. Like the previous study, some of the IC50 values should be interpreted carefully because the concentration range tested was not centered around the IC50. […] The PANC-1 pancreatic cell line, in contrast to BxPC-3, Capan-1, or MIA-PaCa-2, has been shown previously to be resistant in vitro to gemcitabine, and 4′-thio-FAC, a deoxycytidine sulfur- and fluoro-substituted analog (Zajchowski et al., (2005). Int J Cancer. 114(6), 1002-9).

MCF7 = assay: Sulforhodamine B (SRB) growth inhibition assay; type: cell-based, Human; settings: Homo sapiens
Experimental: (§2) In Vitro Screening of PEG-Gemcitabine Monophosphate in Selected Human Cancer Cell Lines
(§3) The aim was to determine the GI50 values for PEG-floxuridine conjugates against a panel of cell lines, and based on previous data from Xenograft studies. […] The test articles were solubilized in dimethylsulfoxide and were tested at four different molar (M) concentrations; 10^−4, 10^−5, 10^−6, M. GI50 (the concentration needed to reduce the growth of treated cells to half that of untreated control cells) was calculated for each condition ([(Ti−Tz)/(C-Tz)]×100=50, where Ti, Tz, and C refer to absorbance values obtained from each tested concentration, time zero, and control treatment, respectively).
as §3, with “The objective” for “The aim”, “the IC50” for “the GI50”, “for PEG-gemcitabine” for “for PEG-floxuridine”, “in dimethyl sulfoxide” for “in dimethylsulfoxide”, “10^−6, 10^−7” for “10^−6,”, “condition ([(Ti−Tz)/(C−Tz)]×100=50,” for “condition ([(Ti−Tz)/(C-Tz)]×100=50,”

A2780 = assay: Sulforhodamine B (SRB) growth inhibition assay; type: cell-based, Human; settings: Homo sapiens, SRB assay
Experimental: as §2, §3
as §3, with “The objective” for “The aim”, “the IC50” for “the GI50”, “for PEG-gemcitabine” for “for PEG-floxuridine”, “in dimethyl sulfoxide” for “in dimethylsulfoxide”, “10^−6, 10^−7” for “10^−6,”, “condition ([(Ti−Tz)/(C−Tz)]×100=50,” for “condition ([(Ti−Tz)/(C-Tz)]×100=50,”

HT29 = assay: Sulforhodamine B (SRB) growth inhibition assay; type: cell-based, Human; settings: Homo sapiens, HT-29, SRB assay
Experimental: as §2, §3
as §3, with “The objective” for “The aim”, “the IC50” for “the GI50”, “for PEG-gemcitabine” for “for PEG-floxuridine”, “in dimethyl sulfoxide” for “in dimethylsulfoxide”, “10^−6, 10^−7” for “10^−6,”, “condition ([(Ti−Tz)/(C−Tz)]×100=50,” for “condition ([(Ti−Tz)/(C-Tz)]×100=50,”

Hop62 = assay: Sulforhodamine B (SRB) growth inhibition assay; type: cell-based, Human; settings: Homo sapiens, HOP-62, SRB assay
Experimental: as §2, §3
as §3, with “The objective” for “The aim”, “the IC50” for “the GI50”, “for PEG-gemcitabine” for “for PEG-floxuridine”, “in dimethyl sulfoxide” for “in dimethylsulfoxide”, “10^−6, 10^−7” for “10^−6,”, “condition ([(Ti−Tz)/(C−Tz)]×100=50,” for “condition ([(Ti−Tz)/(C-Tz)]×100=50,”

HCT15 = assay: Sulforhodamine B (SRB) growth inhibition assay; type: cell-based, Human; settings: Homo sapiens, HCT-15, SRB assay
Experimental: as §2, §3
as §3, with “The objective” for “The aim”, “the IC50” for “the GI50”, “for PEG-gemcitabine” for “for PEG-floxuridine”, “in dimethyl sulfoxide” for “in dimethylsulfoxide”, “10^−6, 10^−7” for “10^−6,”, “condition ([(Ti−Tz)/(C−Tz)]×100=50,” for “condition ([(Ti−Tz)/(C-Tz)]×100=50,”

COLO205 = assay: Sulforhodamine B (SRB) growth inhibition assay; type: cell-based, Human; settings: Homo sapiens, COLO 205, COLO205, SRB assay
Experimental: as §2, §3
as §3, with “The objective” for “The aim”, “the IC50” for “the GI50”, “for PEG-gemcitabine” for “for PEG-floxuridine”, “in dimethyl sulfoxide” for “in dimethylsulfoxide”, “10^−6, 10^−7” for “10^−6,”, “condition ([(Ti−Tz)/(C−Tz)]×100=50,” for “condition ([(Ti−Tz)/(C-Tz)]×100=50,”

Caco-2 cells [2] = assay: Bi-directional permeability in Caco-2 cells
Excerpt: (§5) Bi-Directional Permeability of PEG-Floxuridine Conjugates in Caco-2 and MDCK Cells

[3] = Bi-directional permeability in Caco-2 cells; settings: human
Excerpt: as §5

CAKI-1 = assay: In vitro cytotoxicity assay (CellTiter-Glo); type: cell-based; settings: Homo sapiens, 72 h exposure, CellTiter-Glo
PANC-1 [4] = settings: Zajchowski et al. 2005; cited from earlier work
Caco-2 cells [5] = tested on: Caco-2 cells
Excerpt: as §5

HCT-116 = assay: In vitro cytotoxicity assay (CellTiter-Glo); type: cell-based; settings: Homo sapiens, 72 h exposure, CellTiter-Glo
Experimental: (§4) The objective of these studies were to determine the IC50 values for PEG-floxuridine conjugates against floxuridine-resistant cell lines based on data from previous Xenograft studies. The cells were exposed for 72 h, and cell viability assessed by using the CellTiter-Glo assay.
as §1

HT-29 = assay: In vitro cytotoxicity assay (CellTiter-Glo); type: cell-based; settings: Homo sapiens, 72 h exposure, CellTiter-Glo
Experimental: as §4, §1

MIA PaCa-2 = assay: In vitro cytotoxicity assay (CellTiter-Glo); type: cell-based; settings: Homo sapiens, 72 h exposure, CellTiter-Glo
Experimental: as §4, §1

MDCK cells [6] = tested on: MDCK cells
Excerpt: as §5

MDCK cells [7] = assay: Bi-directional permeability in MDCK cells
Excerpt: as §5

[8] = Bi-directional permeability in MDCK cells; settings: dog
Excerpt: as §5

DU145 = assay: Sulforhodamine B (SRB) growth inhibition assay; type: cell-based, Human; settings: Homo sapiens, DU-145, SRB assay, cells exposed for 24 h, read-out: GI50 values (μM) DU145
Experimental: as §3
as §3, with “The objective” for “The aim”, “the IC50” for “the GI50”, “for PEG-gemcitabine” for “for PEG-floxuridine”, “in dimethyl sulfoxide” for “in dimethylsulfoxide”, “10^−6, 10^−7” for “10^−6,”, “condition ([(Ti−Tz)/(C−Tz)]×100=50,” for “condition ([(Ti−Tz)/(C-Tz)]×100=50,”

Compound Nc1ccn([C@@H]2O[C@H](CO)[C@@H](O)C2(F)F)c(=O)n1 [Gemcitabine, reference compound] has an IC50 (CCRF-CEM) of 7 nM, an IC50 (K-562) of 697 nM and an IC50 (NCI-H460) of 14 nM. For the same compound, the IC50 (NCI-H522) was 4.4 nM, the IC50 (NCI-H23) was 6.9 nM and the IC50 (DLD-1) was 22 nM. The IC50 (AS283) was 124 nM, the IC50 (RL) was 281 nM and the IC50 (HL-60) was 1.7 nM. For the same compound, the IC50 (SW-620) was 49 nM, the recovery (in vitro) was 100 to 110% and the IC50 (PANC-1 [1]) was over 1e+06 nM. The GI50 (MCF7; MCF-7 cell line, read-out: GI50 (MCF-7 moderately sensitive)) was about 0.1 µM, the GI50 (MCF7; SRB assay, 48 h drug exposure, read-out: GI50 (molar concentration) in Cell Line MCF7) was under 0.1 µM and the GI50 (MCF7; SRB assay, cells exposed for 24 h, read-out: GI50 values (μM) MCF7) was under 0.1 µM. The GI50 (A2780; 48 h drug exposure, read-out: GI50 (molar concentration) in Cell Line A2780) was under 0.1 µM, the GI50 (A2780; cells exposed for 24 h, read-out: GI50 values (μM) A2780) was under 0.1 µM and the GI50 (HT29; 48 h drug exposure, read-out: GI50 (molar concentration) in Cell Line HT29) was 2.1 µM. For the same compound, the GI50 (HT29; cells exposed for 24 h, read-out: GI50 values (μM) HT29) was 2.1 µM, the GI50 (Hop62; 48 h drug exposure, read-out: GI50 (molar concentration) in Cell Line Hop62) was 1.8 µM and the GI50 (Hop62; cells exposed for 24 h, read-out: GI50 values (μM) Hop62) was 1.8 µM. For the same compound, the GI50 (HCT15; 48 h drug exposure, read-out: GI50 (molar concentration) in Cell Line HCT15) was 0.16 µM, the GI50 (HCT15; cells exposed for 24 h, read-out: GI50 values (μM) HCT15) was 0.16 µM and the GI50 (COLO205; 48 h drug exposure, read-out: GI50 (molar concentration) in Cell Line COLO205) was 0.14 µM. For the same compound, the GI50 (COLO205; cells exposed for 24 h, read-out: GI50 values (μM) COLO205) was 0.14 µM, the “permeability across Caco-2 monolayers (in words)” value (Caco-2 cells [2]) was “poor permeability” and the Papp A→B [3] was 0.3 ×10⁻⁶ cm/s. It also gave a Papp B→A [3] of 0.42 ×10⁻⁶ cm/s, an efflux ratio [3] of 1.4 and a recovery ([3]; Caco-2, percent recovery A -> B) of 90%. For the same compound, the recovery ([3]; Caco-2, percent recovery B -> A) was 89%, the IC50 (CAKI-1) was 8.3 nM and the “resistance of PANC-1 in vitro (shown previously)” value (PANC-1 [4]) was “resistant”. For the same compound, the Significant efflux (Caco-2 cells [5]) was “No”, the IC50 (HCT-116) was 1.9 nM and the IC50 (HT-29) was 111 nM. The IC50 (MIA PaCa-2) was 26 nM, the Significant efflux (MDCK cells [6]) was “No” and the “permeability through MDCK monolayers (in words)” value (MDCK cells [7]) was “poor permeability”. The Papp A→B [8] was 0.17 ×10⁻⁶ cm/s, the Papp B→A [8] was 0.12 ×10⁻⁶ cm/s and the efflux ratio [8] was 0.7. The recovery ([8]; percent recovery A -> B) was 96%, the recovery ([8]; percent recovery B -> A) was 95% and the GI50 (DU145) was under 0.1 µM.
